Measurements taken from patent publication US8563267B2, “Lycogen extract, composition thereof and method for the treatment using the same” (Asia-Pacific Beiotech Developing, Inc., priority 2010, dated 2013).

How the values were obtained:
type I procollagen = experiment: Type I procollagen level in Hs68 human fibroblasts (Western blotting); assay type: cell-based; conditions: Hs68, without UV treatment, 24 hr; lycopene 0.1, 0.5, 10 μM; lycogen extract 1, 5, 10 μM
Procedure: The Hs68 human fibroblasts were treated with 20 J/cm^2 of UVA and then with 10, 25 and 50 μM of lycogen extract for 24 hr. The type I procollagen level was analyzed by using Western blotting analysis.
In addition, under condition without UV treatment, the Hs68 human fibroblasts were treated with 0.1, 0.5 and 10 μM lycopene (extracted from tomato) or 1, 5, 10 μM lycogen extract (extracted from photosynthetic bacteria of the present invention) for 24 hr. The type I procollagen level was analyzed by using Western blotting.

human lymphocytes = conditions: protection of human lymphocytes from free radical NO2; cited from earlier work
[1] = test tube studies; cited from earlier work

CC(C)=CCC/C(C)=C/C=C/C(C)=C/C=C/C(C)=C/C=C/C=C(C)/C=C/C=C(C)/C=C/C=C(\C)CCC=C(C)C [lycopene]
promotion of collagen proliferation (type I procollagen level) (type I procollagen): unable to promote collagen proliferation
NO2 resistant effect relative to β-carotene (human lymphocytes): at least two times
efficiency of singlet-oxygen quenching action relative to vitamin E [1]: 100 times
